Test results taken from patent US20160008471A1, “TRANSDERMAL FORMULATIONS” (priority 2013, published 2016).
Counter-ions that a name gives are not always drawn. Like-named read-outs stand apart in the source and are kept apart here.

Columns and labels:
[1] = at RT; cited from earlier work
[2] = cited from earlier work; for pKa (acidic): first pKa (acidic) column; for Solubility (Aq): in words
[3] = male, bovine, pH 7.4
[4] = horse
[5] = rabbit
[6] = Moxidectin skin deposition study; format: in vitro ADME, bovine; settings: 72 hours
Description: The amount of moxidectin accumulating in the bovine skin was determined using whole skin thickness (approx. […]) and split skin thickness (approx. […]) after 72 hours. The skin tissue was physically broken down using a Gentle MACS dissociator (Miltenyi Biotec GmbH, Germany) with 5 mL of methanol added into each sample. The dissociator setting was RNA-02.01 with M-type tubes for 90 seconds. Centrifuged samples had the supernatant collected and diluted 2 times with ACN before being analysed by the HPLC method.

[7] = Stability of test composition with surfactants (phase separation, crystals); format: physicochemical; settings: surfactant added to test composition (Table 5); room temperature (24±1° C.)
Description: The purpose of this study was to examine the stability of the formula which may comprise surface active agents such as surfactants. […] Three temperatures (RT, 4.5° C. and −20° C.) were used to monitor for phase separation and/or drug crystal formation every one or two days from 6 days.

[8] = Solubility of actives in individual solvents
Description: The purpose of these studies was to identify solvents and co-solvents to optimise solubility of actives and the physical/chemical stability of product.

CCCCCCCC/C=C\CCCCCCCCOCCOCCO [Brij 93, polyoxyethylene (2) oleyl ether]
HLB [1]: 4.5 ± 0.4

C[C@]12CCC(=O)C=C1CC[C@@H]1[C@@H]2[C@@H](O)C[C@@]2(C)[C@H]1CC[C@]2(O)C(=O)CO [Hydrocortisone, Hydrocortisone (base)]
pKa (basic) [2]: −2.8
pKa (acidic) [2]: 12.6

c1ccc([C@H]2CN3CCSC3=N2)cc1 [Lev. Base, levamisole base]
flux rate of levamisole ([3]; 72 h): 949.6±80.8 μg/cm^2/hr
logP [2]: 1.8
pKa (acidic) [2]: 8
Solubility (Aq) [2]: Insoluble
pKa ([2]; stated for the basic drug LEV): 8

CCN(CC)CCNC(=O)c1cc(Cl)c(N)cc1OC [Metoclopramide, Metacloprimide HCl]
Mean (μg/cm2) permeated ([3]; 0 h): 0 μg/cm2
Mean (μg/cm2) permeated ([3]; 2 h): 16.2 μg/cm2
Mean (μg/cm2) permeated ([3]; 4 h): 251 μg/cm2
Mean (μg/cm2) permeated ([3]; 6 h): 456 μg/cm2
Mean (μg/cm2) permeated ([3]; 8 h): 960 μg/cm2
Mean (μg/cm2) permeated ([3]; 20 h): 2188 μg/cm2
Mean (μg/cm2) permeated ([3]; 24 h): 2252 μg/cm2
Mean (μg/cm2) permeated ([3]; 26 h): 2718 μg/cm2
Mean (μg/cm2) permeated ([3]; 44 h): 4779 μg/cm2
Mean (μg/cm2) permeated ([3]; 48 h): 5169 μg/cm2
Mean (μg/cm2) permeated ([3]; 52 h): 5394 μg/cm2
Flux ([3]; 58 h): 109.4±11.8 μg/cm^2/hr
Mean (μg/cm2) permeated ([3]; 68 h): 5336 μg/cm2
Mean (μg/cm2) permeated ([3]; 70 h): 5613 μg/cm2
APC ([3]; 72 h): 97.1 cm/s × 10^−8
Extent 72 h ([3]; 72 h): 5346 μg/cm^2
Flux ([3]; 72 h): 109 μg/cm^2/hr
Mean (μg/cm2) permeated ([3]; 72 h): 5346 μg/cm2
lag T [3]: 1.07 h
lag T [4]: 3.11 h
Mean (μg/cm2) permeated ([4]; 0 h): 0 μg/cm2
Mean (μg/cm2) permeated ([4]; 2 h): 0 μg/cm2
Mean (μg/cm2) permeated ([4]; 4 h): 0 μg/cm2
Mean (μg/cm2) permeated ([4]; 6 h): 0 μg/cm2
Mean (μg/cm2) permeated ([4]; 8 h): 68.1 μg/cm2
Mean (μg/cm2) permeated ([4]; 10 h): 679 μg/cm2
Mean (μg/cm2) permeated ([4]; 20 h): 1372 μg/cm2
Flux ([4]; 24 h): 67.0±24.6 μg/cm^2/hr
Mean (μg/cm2) permeated ([4]; 24 h): 1533 μg/cm2
Mean (μg/cm2) permeated ([4]; 26 h): 1477 μg/cm2
Mean (μg/cm2) permeated ([4]; 28 h): 1640 μg/cm2
Mean (μg/cm2) permeated ([4]; 44 h): 2604 μg/cm2
Mean (μg/cm2) permeated ([4]; 46 h): 2784 μg/cm2
Mean (μg/cm2) permeated ([4]; 48 h): 2910 μg/cm2
Mean (μg/cm2) permeated ([4]; 50 h): 2930 μg/cm2
Mean (μg/cm2) permeated ([4]; 52 h): 3078 μg/cm2
Mean (μg/cm2) permeated ([4]; 68 h): 3350 μg/cm2
Mean (μg/cm2) permeated ([4]; 70 h): 3440 μg/cm2
APC ([4]; 72 h): 62.7 cm/s × 10^−8
Extent 72 h ([4]; 72 h): 3454 μg/cm^2
Flux ([4]; 72 h): 67.0 μg/cm^2/hr
Mean (μg/cm2) permeated ([4]; 72 h): 3454 μg/cm2
Flux [5]: 38.6±9.2 μg/cm^2/hr
lag T [5]: 4.84 h
Mean (μg/cm2) permeated ([5]; 0 h): 0 μg/cm2
Mean (μg/cm2) permeated ([5]; 2 h): 0 μg/cm2
Mean (μg/cm2) permeated ([5]; 4 h): 0 μg/cm2
Mean (μg/cm2) permeated ([5]; 6 h): 0 μg/cm2
Mean (μg/cm2) permeated ([5]; 8 h): 0 μg/cm2
Mean (μg/cm2) permeated ([5]; 10 h): 32.3 μg/cm2
Mean (μg/cm2) permeated ([5]; 20 h): 685 μg/cm2
Mean (μg/cm2) permeated ([5]; 24 h): 772 μg/cm2
Mean (μg/cm2) permeated ([5]; 26 h): 831 μg/cm2
Mean (μg/cm2) permeated ([5]; 28 h): 925 μg/cm2
Mean (μg/cm2) permeated ([5]; 44 h): 1537 μg/cm2
Mean (μg/cm2) permeated ([5]; 46 h): 1612 μg/cm2
Mean (μg/cm2) permeated ([5]; 48 h): 1567 μg/cm2
Mean (μg/cm2) permeated ([5]; 50 h): 1782 μg/cm2
Mean (μg/cm2) permeated ([5]; 52 h): 1968 μg/cm2
Mean (μg/cm2) permeated ([5]; 68 h): 2391 μg/cm2
Mean (μg/cm2) permeated ([5]; 70 h): 2387 μg/cm2
APC ([5]; 72 h): 45.7 cm/s × 10^−8
Extent 72 h ([5]; 72 h): 2515 μg/cm^2
Flux ([5]; 72 h): 38.6 μg/cm^2/hr
Mean (μg/cm2) permeated ([5]; 72 h): 2515 μg/cm2

CO/N=C1\C[C@]2(C[C@@H]3C[C@@H](C/C=C(\C)C[C@@H](C)/C=C/C=C4\CO[C@@H]5[C@H](O)C(C)=C[C@@H](C(=O)O3)[C@]45O)O2)O[C@H](/C(C)=C/C(C)C)[C@H]1C [Moxidectin, moxidectin]
proportion of the drug in Donor ([6]; 500 μm skin): 51%
proportion of the drug in Receptor ([6]; 500 μm skin): 31%
proportion of the drug in Skin ([6]; 500 μm skin): 18%
proportion of the drug in Donor ([6]; Whole skin): 65%
proportion of the drug in Receptor ([6]; Whole skin): 3%
proportion of the drug in Skin ([6]; Whole skin): 32%
flux rate of moxidectin ([3]; 72 h): 475±185.2 ng/cm^2/hr
Solubility (Aq) [2]: Insoluble

CCCCCCCC/C=C\CCCCCCCC(=O)OCCOCC(OCCO)C1OCC(OCCO)C1OCCO (stereo not shown) [Tween 80]
Stability of test composition, RT [7]: S

Span 60
HLB [1]: 4.7

Span 80
HLB [1]: 4.3

Tocopherol
HLB [1]: 6.0

abamectin
logP [2]: 4.4
Solubility (Aq) [2]: Insoluble
Maximum Solubility % w/w ([8]; in AGNIQUE AMD 10): At least 1 % w/w
Maximum Solubility % w/w ([8]; in AGNIQUE AMD 810): At least 1 % w/w
Maximum Solubility % w/w ([8]; in Cremophor): At least 1 % w/w
Maximum Solubility % w/w ([8]; in DMSO): At least 1 % w/w
Maximum Solubility % w/w ([8]; in Dipropylenglycol dimethylether): At least 1 % w/w
Maximum Solubility % w/w ([8]; in Ecoteric T80): At least 1 % w/w
Maximum Solubility % w/w ([8]; in Glycerol Formal): 19 % w/w
Maximum Solubility % w/w ([8]; in Isopropyl Mirystate): At least 1 % w/w
Maximum Solubility % w/w ([8]; in Isopropyleneglycol): 7 % w/w
Maximum Solubility % w/w ([8]; in Isosorbide): At least 1 % w/w
Maximum Solubility % w/w ([8]; in PEG400): At least 1 % w/w
Maximum Solubility % w/w ([8]; in Polysorbate 20): At least 1 % w/w
Maximum Solubility % w/w ([8]; in Span 80): At least 1 % w/w
Maximum Solubility % w/w ([8]; in Tetraglycol): 8 % w/w
Maximum Solubility % w/w ([8]; in Triacetin): 3 % w/w
Maximum Solubility % w/w ([8]; in Tripropylene glycol methylether (TPGME)): 8 % w/w
